Patent US20110136141A1, “PEPTIDE REAGENTS AND METHOD FOR INHIBITING AUTOANTIBODY ANTIGEN BINDING” (Abbott Laboratories, priority 2009, published 2011)
The star is where a group is joined. Biotin = O=C1N[C@H]2[C@H](CS[C@H]2CCCCC(=O)*)N1

System: endogenous antibodies to cardiac troponin-I (binding to recombinant human cardiac troponin-I)
Assay: Inhibition of anti-cTnI autoantibody binding to cardiac troponin-I (microplate chemiluminescent immunoassay)
Experimental: Inhibitor working solutions: The peptides listed in Table 12 (obtained from Sigma-Genosys, PEPscreen custom library) were diluted in AxSYM® Troponin-I ADV Preincubation Diluent to give solutions ranging from 240 nmol/mL to 0 nmol/mL. An equimolar mixture of the peptides listed in Table 12 was prepared and diluted to give solutions ranging from 240 nmol/mL to 0 nmol/mL/.
Microplate preparation: Recombinant human cardiac troponin-I (cTnI, BiosPacific, Emeryville, Calif.) was coated on white high-binding flat-bottom 96-well polystyrene microplates (Costar) in phosphate buffer (100 μL, 0.2 M, pH 8, 4 μg/mL) at 38° C., for 1 h, then overcoated sequentially with bovine serum albumin and 2% wt/v sucrose in PBS.
Chemiluminescent detection conjugate: A murine anti-human IgG (subtype IgG2b, kappa;) was labeled with a chemiluminescent acridinium-9-carboxamide. This antibody recognized all human IgG subtypes while having no significant reactivity toward human IgM or IgA, or rabbit, sheep or goat IgG. […]
Chemiluminescent detection: The microplate was loaded into a Mithras microplate reader (Berthold Technologies Inc, Oak Ridge, Tenn.) equilibrated at 28° C. The chemiluminescence signal from each well was recorded for 2 s after the sequential addition of ARCHITECT® Pre-Trigger solution (100 μL) and ARCHITECT® Trigger solution (100 μL).

## #5 (Biotin-ALSGMEGRKKKFES-NH2; SMILES CSCC[C@H](NC(=O)CNC(=O)[C@H](CO)NC(=O)[C@H](CC(C)C)NC(=O)[C@H](C)NC(=O)CCCC[C@@H]1SC[C@@H]2NC(=O)N[C@@H]21)C(=O)N[C@@H](CCC(=O)O)C(=O)NCC(=O)N[C@@H](CCCNC(=N)N)C(=O)N[C@@H](CCCCN)C(=O)N[C@@H](CCCCN)C(=O)N[C@@H](CCCCN)C(=O)N[C@@H](Cc1ccccc1)C(=O)N[C@@H](CCC(=O)O)C(=O)N[C@@H](CO)C(N)=O)
Example 1, FIG. 11, peptides of Table 12 ([Btn] amino-terminus), 240 to 0 nmol/mL, human serum sample mixed 1:1, overnight
  ratio of signal to the low control (S/LC): inhibition of the binding of endogenous antibodies to the cTnI antigen on the microplate: greatest inhibition
Example 2, FIG. 12, peptides of Table 13 ([Ac] amino-terminus), procedure of Example 1
  ratio of signal to the low control (S/LC): inhibition of the binding of endogenous antibodies to the cTnI antigen on the microplate: greatest inhibition
